From US5750499A, “Receptor-selective somatostatin analogs” (The Salk Institute for Biological Studies, priority 1995, dated 1998) come the findings set out here.

Entries after “also recorded” stand apart in the source; their conditions may differ. Where a SMILES comes first, the peptide text is derived from it. Bridges are numbered along the chain shown (N, C = ends). Where no end group is shown, it is not given here. [ ]: non-standard residue; d: D form. The star is where a group is joined. Phe(4-CH2NHiPr) = CC(C)NCc1ccc(C[C@H](N)C(=O)O)cc1; Tyr(3-I) = N[C@@H](Cc1ccc(O)c(I)c1)C(=O)O; 125I = [125I]* Bounds are passed on as bounds.

For test [1], the target named is T1, SSTR1 (Homo sapiens, UniProt P30872).
T1 construct: expressed in transfected cells; host or cells: COS and CHO cells
Nature of the test: Inhibition of [125I-Tyr11]SRIF binding to cloned human SSTR1. The protocol:
In a typical assay, an amount of protein from the cell homogenate is placed into a small volume of an appropriate assay buffer at an appropriate pH.
(§1) Alternatively, IC50 values indicative of the concentration of a competitive ligand necessary to displace a saturation concentration of a target ligand being measured from 50% of binding sites can also be calculated in such competitive assays.
(§2) In vitro Bioassay: The effects of the various somatostatin analogs are tested in vitro for their ability to bind to isolated cloned receptors expressed on COS and CHO cells.
(§3) The molecular cloning of the genes encoding multiple somatostatin receptor subtypes permits the individual expression of these receptors in mammalian cells and the characterization of their respective pharmacological profiles.

For a further test, the target named is T2, mSSTR1 (Mus musculus, UniProt P30873).
T2 construct: expressed in transfected cells; host or cells: COS and CHO cells
Nature of the test: Inhibition of [125I-Tyr11]SRIF binding to cloned mSSTR1 (Table). On the procedure:
as §2, §3
(§4) Certain of the measurements are in progress.

In another test the target is T3, mSSTR2 (Mus musculus, UniProt P30875).
T3 construct: expressed in transfected cells; host or cells: COS and CHO cells
As to the kind of experiment: Inhibition of [125I-Tyr11]SRIF binding to cloned mSSTR2 (Table). The protocol:
as §2, §3, §4

The next test has as its target T4, mSSTR3 (Mus musculus, UniProt P30935).
T4 construct: expressed in transfected cells; host or cells: COS and CHO cells
As to the kind of experiment: Inhibition of [125I-Tyr11]SRIF binding to cloned mSSTR3 (Table). The protocol: as §2, §3, §4

The target in test [2] is T1, SSTR1. As to the kind of experiment: Inhibition of binding of iodinated Peptide No. 5 to SSTR1. The note with it: radioligand iodinated Peptide No. 5.
From the text: as §1
(§5) The Bmax value represents the highest number of specific sites which can be occupied at a given time, i.e. the saturation point.

In test [3] the test system is COS-7 cells expressing SSTR1. As to the kind of experiment: Forskolin-stimulated cAMP formation in COS-7 cells expressing SSTR1. The note with it: 1 μM of Peptide No. 2. The class given is cell-based. A general note: Changes in cAMP serve as a functional read-out for many G protein-coupled receptors.
For test [4], the target named is T1, SSTR1. Nature of the test: Direct saturation binding of iodinated Peptide No. 5 to cloned SSTR1. The following applies: iodinated peptide as radioligand.
From the text: as §1, §5

Another test addresses T5, SSTR2 (Mus musculus, UniProt P30875).
T5 construct: expressed in transfected cells; host or cells: COS and CHO cells
As to the kind of experiment: Direct binding of iodinated Peptide No. 5 to cloned SSTR2.
From the text: as §5

Another test addresses T6, SSTR3 (Mus musculus, UniProt P30935).
T6 construct: expressed in transfected cells; host or cells: COS and CHO cells
As to the kind of experiment: Direct binding of iodinated Peptide No. 5 to cloned SSTR3.
From the text: as §5

For the next test, the target named is T7, SSTR4 (Homo sapiens, UniProt P31391).
T7 construct: expressed in transfected cells; host or cells: COS and CHO cells
Nature of the test: Direct binding of iodinated Peptide No. 5 to cloned SSTR4.
From the text: as §5

The next test deals with T8, SSTR5 (Rattus norvegicus, UniProt P30938).
T8 construct: expressed in transfected cells; host or cells: COS and CHO cells
T8 sequence (P30938 1-363): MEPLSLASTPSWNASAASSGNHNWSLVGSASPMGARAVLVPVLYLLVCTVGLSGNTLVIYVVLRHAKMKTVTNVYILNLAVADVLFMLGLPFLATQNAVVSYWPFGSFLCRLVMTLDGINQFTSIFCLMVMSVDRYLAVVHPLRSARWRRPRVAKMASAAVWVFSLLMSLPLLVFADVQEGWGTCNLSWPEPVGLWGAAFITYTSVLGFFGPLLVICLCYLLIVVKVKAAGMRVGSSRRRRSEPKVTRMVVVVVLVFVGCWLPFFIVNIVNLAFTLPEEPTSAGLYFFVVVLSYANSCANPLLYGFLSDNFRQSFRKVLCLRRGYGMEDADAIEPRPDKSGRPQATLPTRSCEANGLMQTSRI
As to the kind of experiment: Direct binding of iodinated Peptide No. 5 to cloned SSTR5.
From the text: as §5

The target in test [5] is T9, SSTR1 expressed in COS-7 cells (Homo sapiens, UniProt P30872).
T9 construct: expressed in transfected cells; host or cells: COS-7 cells
Nature of the test: GTPgS and pertussis toxin regulation of radioligand binding to SSTR1 expressed in COS-7 cells.
From the text: as §5

T4 sequence (P30935 whole entry): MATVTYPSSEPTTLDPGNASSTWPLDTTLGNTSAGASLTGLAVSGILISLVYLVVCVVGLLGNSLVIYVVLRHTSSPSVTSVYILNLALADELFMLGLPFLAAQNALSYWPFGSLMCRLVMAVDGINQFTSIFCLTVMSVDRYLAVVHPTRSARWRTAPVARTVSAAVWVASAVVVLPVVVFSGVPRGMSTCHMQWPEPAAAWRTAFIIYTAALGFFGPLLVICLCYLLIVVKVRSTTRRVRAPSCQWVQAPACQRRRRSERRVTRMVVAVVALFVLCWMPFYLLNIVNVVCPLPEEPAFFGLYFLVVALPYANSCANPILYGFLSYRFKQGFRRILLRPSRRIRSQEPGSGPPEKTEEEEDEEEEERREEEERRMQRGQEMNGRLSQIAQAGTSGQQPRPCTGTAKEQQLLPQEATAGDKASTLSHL
T3 sequence (P30875 whole entry): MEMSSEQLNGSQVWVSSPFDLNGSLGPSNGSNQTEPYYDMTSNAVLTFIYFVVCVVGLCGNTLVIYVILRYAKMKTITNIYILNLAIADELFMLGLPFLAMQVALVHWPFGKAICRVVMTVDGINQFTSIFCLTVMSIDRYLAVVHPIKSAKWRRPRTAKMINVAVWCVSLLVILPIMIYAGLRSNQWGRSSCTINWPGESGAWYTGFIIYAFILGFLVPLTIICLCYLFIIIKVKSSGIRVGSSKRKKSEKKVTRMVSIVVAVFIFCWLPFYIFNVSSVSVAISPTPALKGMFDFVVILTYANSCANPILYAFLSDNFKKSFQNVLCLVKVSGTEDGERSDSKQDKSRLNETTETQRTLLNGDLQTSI
T2 sequence (P30873 whole entry): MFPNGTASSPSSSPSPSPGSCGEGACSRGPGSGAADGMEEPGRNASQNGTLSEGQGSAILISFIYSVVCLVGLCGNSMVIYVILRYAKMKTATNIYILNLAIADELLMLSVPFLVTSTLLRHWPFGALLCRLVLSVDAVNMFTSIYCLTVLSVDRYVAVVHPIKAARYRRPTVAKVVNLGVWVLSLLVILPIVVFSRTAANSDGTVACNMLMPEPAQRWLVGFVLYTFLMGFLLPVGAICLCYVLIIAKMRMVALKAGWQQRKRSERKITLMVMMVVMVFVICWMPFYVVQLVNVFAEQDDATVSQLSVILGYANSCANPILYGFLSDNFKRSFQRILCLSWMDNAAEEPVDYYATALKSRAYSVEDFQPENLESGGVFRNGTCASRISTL
T9 sequence (P30872 whole entry): as the sequence (P30873 whole entry) above, with A25G, C26G, S32A, A385T, S389T counted along it
T1 sequence (P30872 whole entry): as the sequence (P30873 whole entry) above, with A25G, C26G, S32A, A385T, S389T counted along it
T6 sequence (P30935 whole entry): as the sequence (P30935 whole entry) above
T5 sequence (P30875 whole entry): as the sequence (P30875 whole entry) above
T7 sequence (P31391 whole entry): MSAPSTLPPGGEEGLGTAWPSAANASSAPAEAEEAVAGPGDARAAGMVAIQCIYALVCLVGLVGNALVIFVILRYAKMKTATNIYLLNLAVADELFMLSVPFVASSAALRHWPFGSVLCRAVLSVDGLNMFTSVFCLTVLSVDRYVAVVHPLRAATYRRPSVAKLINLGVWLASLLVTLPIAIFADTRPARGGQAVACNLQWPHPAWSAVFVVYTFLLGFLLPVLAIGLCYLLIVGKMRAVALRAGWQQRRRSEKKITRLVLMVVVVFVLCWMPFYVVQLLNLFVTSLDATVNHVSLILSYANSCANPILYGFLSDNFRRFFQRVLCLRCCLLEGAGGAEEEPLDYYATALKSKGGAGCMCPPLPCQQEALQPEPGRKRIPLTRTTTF

With `CC(C)NCc1ccc(C[C@@H]2NC(=O)[C@@H](Cc3c[nH]c4ccccc34)NC(=O)[C@H](Cc3ccccc3)NC(=O)[C@H](Cc3ccccc3)NC(=O)[C@H](CCCCN)NC(=O)[C@@H](N)CSSC[C@@H](C(=O)O)NC(=O)[C@H](CO)NC(=O)[C@H]([C@@H](C)O)NC(=O)[C@H](Cc3ccccc3)NC(=O)[C@H]([C@@H](C)O)NC2=O)cc1` [Peptide No. 2, des-AA^1,2,5 [D-Trp^8, IAmp^9]-SRIF] (H-CKFF[dW][Phe(4-CH2NHiPr)]TFTSC-OH; disulfide 1-11), the IC50 – broadly, the concentration needed to halve the response being measured – was found to be 1.8 ± 0.7 nM at SSTR1 [1], 1 nM at mSSTR1, 1100 nM on mSSTR2 and 1000 nM at mSSTR3.

For the compound `CC(C)NCc1ccc(C[C@@H]2NC(=O)[C@@H](Cc3c[nH]c4ccccc34)NC(=O)[C@H](Cc3ccccc3)NC(=O)[C@H](Cc3ccccc3)NC(=O)[C@H](CCCCN)NC(=O)[C@@H](N)CSSC[C@@H](C(=O)O)NC(=O)[C@@H](CO)NC(=O)[C@H]([C@@H](C)O)NC(=O)[C@H](Cc3ccccc3)NC(=O)[C@H]([C@@H](C)O)NC2=O)cc1` [Peptide No. 4, des-AA^1,2,5-[D-Trp^8, IAmp^9, D-Ser^13]SRIF] (H-CKFF[dW][Phe(4-CH2NHiPr)]TFT[dS]C-OH; disulfide 1-11), the concentration for half-maximal inhibition (IC50) on SSTR1 [2] was 5.3 ± 0.8 nM; at mSSTR1 it was 1.25 nM; at mSSTR2, > 1000 nM; on mSSTR3, 178 nM.

As for `CC(C)NCc1ccc(C[C@@H]2NC(=O)[C@@H](Cc3c[nH]c4ccccc34)NC(=O)[C@H](Cc3ccccc3)NC(=O)[C@H](Cc3ccccc3)NC(=O)[C@H](CCCCN)NC(=O)[C@@H](NC(=O)[C@@H](N)Cc3ccc(O)cc3)CSSC[C@@H](C(=O)O)NC(=O)[C@H](CO)NC(=O)[C@H]([C@@H](C)O)NC(=O)[C@H](Cc3ccccc3)NC(=O)[C@H]([C@@H](C)O)NC2=O)cc1` [Peptide No. 5] (H-YCKFF[dW][Phe(4-CH2NHiPr)]TFTSC-OH; disulfide 2-12), the IC50 is 0.8 nM on mSSTR1, > 100 nM at mSSTR2 and > 100 nM at mSSTR3.

With `CC(C)NCc1ccc(C[C@@H]2NC(=O)[C@@H](Cc3c[nH]c4ccccc34)NC(=O)[C@H](Cc3ccccc3)NC(=O)[C@H](Cc3ccccc3)NC(=O)[C@H](CC(N)=O)NC(=O)[C@H](CCCCN)NC(=O)[C@@H](N)CSSC[C@@H](C(=O)O)NC(=O)[C@H](CO)NC(=O)[C@H]([C@@H](C)O)NC(=O)[C@H](Cc3ccccc3)NC(=O)[C@H]([C@@H](C)O)NC2=O)cc1` [Peptide No. 9] (H-CKNFF[dW][Phe(4-CH2NHiPr)]TFTSC-OH; disulfide 1-12), the figures for the IC50 at mSSTR1, on mSSTR2 and at mSSTR3 were 54 nM, > 1000 nM and > 1000 nM, respectively.

As for `C[C@H](N)C(=O)NCC(=O)N[C@H]1CSSC[C@@H](C(=O)O)NC(=O)[C@H](CO)NC(=O)[C@H]([C@@H](C)O)NC(=O)[C@H](Cc2ccccc2)NC(=O)[C@H]([C@@H](C)O)NC(=O)[C@H](CCCCN)NC(=O)[C@H](Cc2c[nH]c3ccccc23)NC(=O)[C@H](Cc2ccccc2)NC(=O)[C@H](Cc2ccccc2)NC(=O)[C@H](CC(N)=O)NC(=O)[C@H](CCCCN)NC1=O` [SRIF, somatostatin-14], the “inhibition of forskolin-stimulated cAMP formation” value in test [3] was “Neither 1 μM of Peptide No. 2, nor SRIF itself, inhibits forskolin-stimulated cAMP formation”.

Consider `CC(C)NCc1ccc(C[C@@H]2NC(=O)[C@@H](Cc3c[nH]c4ccccc34)NC(=O)[C@H](Cc3ccccc3)NC(=O)[C@H](Cc3ccccc3)NC(=O)[C@@H](N)CSSC[C@@H](C(=O)O)NC(=O)[C@H](Cc3ccccc3)NC(=O)[C@H]([C@@H](C)O)NC2=O)cc1` [[IAmp^9]ODT8, [IAmp^5]-ODT8] (H-CFF[dW][Phe(4-CH2NHiPr)]TFC-OH; disulfide 1-8), for which the IC50 on mSSTR1 is 160 nM; at mSSTR2 it was > 1000 nM; at mSSTR3, 500 nM.

With `CC(C)NCc1ccc(C[C@@H]2NC(=O)[C@@H](Cc3c[nH]c4ccccc34)NC(=O)[C@H](Cc3ccccc3)NC(=O)[C@H](Cc3ccccc3)NC(=O)[C@H](CCCCN)NC(=O)[C@@H](NC(=O)[C@@H](N)Cc3ccc(O)c(I)c3)CSSC[C@@H](C(=O)O)NC(=O)[C@H](CO)NC(=O)[C@H]([C@@H](C)O)NC(=O)[C@H](Cc3ccccc3)NC(=O)[C@H]([C@@H](C)O)NC2=O)cc1` [^125 I-Tyr^2-des-AA^1,5-[D-Trp^8,IAmp^9]SRIF] (H-[Tyr(3-I)]CKFF[dW][Phe(4-CH2NHiPr)]TFTSC-OH; disulfide 2-12), the “Bmax, binding to SSTR1” value on SSTR1 [4] is 226±56 fmol/mg protein. The “specific binding of iodinated peptide to SSTR2” value on SSTR2 is reported as “did not bind”. The “specific binding of iodinated peptide to SSTR3” value on SSTR3 is listed as “did not bind”. Moreover, at SSTR4, the “specific binding of iodinated peptide to SSTR4” value is on record as “did not bind”. On SSTR5, the “specific binding of iodinated peptide to SSTR5” value is “did not bind”. Moreover, the “effect of GTPgS and pertussis toxin treatment on binding of the radioligand to SSTR1” value in test [5] is “reduced by GTPgS and pertussis toxin treatment”.

As to “[^125 I-Tyr^11 ]SRIF (AGCKNFFWKTY(125I)TSC; ends and bridges not checked; UniProt P61278 103-116, looked up, variant F11Y)”, the “effect of GTPgS and pertussis toxin treatment on binding of the radioligand to SSTR1” value in test [5] is recorded as “did not diminish; also recorded: not significantly effected by GTP analogs nor pertussis toxin treatment”.
